Test results: ChEMBL document CHEMBL1201862, “PubChem BioAssay data set” (2004)
The source made the active and inactive calls.

How the values were obtained:
[1] = A Cell Based Secondary Assay To Explore Cytotoxicity of Compounds that Sensitize Mycobacterium Tuberculosis to Beta-Lactam Antibiotics.; assay type: functional
[2] = target: T1, Estrogen receptor (Homo sapiens, UniProt P03372);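 note: potency for inhibiting coactivator peptide recruitment to the receptor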
T1 sequence (P03372 whole entry): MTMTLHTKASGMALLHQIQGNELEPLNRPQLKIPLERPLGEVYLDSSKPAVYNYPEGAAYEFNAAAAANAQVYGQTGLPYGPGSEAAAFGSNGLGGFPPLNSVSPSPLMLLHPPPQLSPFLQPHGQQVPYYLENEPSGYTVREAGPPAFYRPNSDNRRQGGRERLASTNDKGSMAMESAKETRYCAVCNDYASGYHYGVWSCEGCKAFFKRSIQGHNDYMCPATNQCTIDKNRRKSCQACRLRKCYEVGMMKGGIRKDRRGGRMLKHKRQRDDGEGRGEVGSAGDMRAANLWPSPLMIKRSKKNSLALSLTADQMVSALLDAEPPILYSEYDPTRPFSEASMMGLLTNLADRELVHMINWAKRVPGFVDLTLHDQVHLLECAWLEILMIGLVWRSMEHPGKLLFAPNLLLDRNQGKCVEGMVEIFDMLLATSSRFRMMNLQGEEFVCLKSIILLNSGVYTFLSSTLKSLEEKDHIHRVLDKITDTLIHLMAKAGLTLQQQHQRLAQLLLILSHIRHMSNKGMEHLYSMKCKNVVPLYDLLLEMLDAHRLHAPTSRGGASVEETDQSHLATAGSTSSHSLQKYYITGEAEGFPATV

[3] = target: T2, Long-chain-fatty-acid--AMP ligase FadD28 (Mycobacterium tuberculosis, UniProt P9WQ59); assay: Fluorescence polarization aasay to screen for inhibitors that compete for the binding of FadD28 to a bisubstrate Measured in Biochemical System Using Plate Reader - 2147-01_Inhibitor_Dose_CherryPick_Activity.; assay type: functional, Mycobacterium tuberculosis H37Rv
T2 sequence (P9WQ59 whole entry): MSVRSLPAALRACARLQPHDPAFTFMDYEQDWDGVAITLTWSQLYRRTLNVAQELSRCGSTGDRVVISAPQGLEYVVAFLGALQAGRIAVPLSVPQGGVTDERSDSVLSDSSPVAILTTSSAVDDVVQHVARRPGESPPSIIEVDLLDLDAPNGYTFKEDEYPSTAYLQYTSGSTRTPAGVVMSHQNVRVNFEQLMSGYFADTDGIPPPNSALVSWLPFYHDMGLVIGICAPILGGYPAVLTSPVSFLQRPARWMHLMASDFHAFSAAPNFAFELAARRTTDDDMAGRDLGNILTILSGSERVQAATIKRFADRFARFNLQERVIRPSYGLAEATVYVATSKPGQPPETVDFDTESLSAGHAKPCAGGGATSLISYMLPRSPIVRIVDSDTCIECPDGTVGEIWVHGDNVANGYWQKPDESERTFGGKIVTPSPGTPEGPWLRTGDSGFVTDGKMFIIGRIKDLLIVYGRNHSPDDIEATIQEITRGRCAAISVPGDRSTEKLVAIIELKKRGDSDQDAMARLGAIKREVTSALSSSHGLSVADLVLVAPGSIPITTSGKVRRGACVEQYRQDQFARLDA

[4] = target: T3, Leucine aminopeptidase (Plasmodium falciparum 3D7, UniProt Q8IL11); assay: P. falciparum M17LAP inhibitors, primary screen, biochemical, fluorogenic H-Leu-NHMec substrate, 1536-well (AID 1619); assay type: functional
T3 sequence (Q8IL11 whole entry): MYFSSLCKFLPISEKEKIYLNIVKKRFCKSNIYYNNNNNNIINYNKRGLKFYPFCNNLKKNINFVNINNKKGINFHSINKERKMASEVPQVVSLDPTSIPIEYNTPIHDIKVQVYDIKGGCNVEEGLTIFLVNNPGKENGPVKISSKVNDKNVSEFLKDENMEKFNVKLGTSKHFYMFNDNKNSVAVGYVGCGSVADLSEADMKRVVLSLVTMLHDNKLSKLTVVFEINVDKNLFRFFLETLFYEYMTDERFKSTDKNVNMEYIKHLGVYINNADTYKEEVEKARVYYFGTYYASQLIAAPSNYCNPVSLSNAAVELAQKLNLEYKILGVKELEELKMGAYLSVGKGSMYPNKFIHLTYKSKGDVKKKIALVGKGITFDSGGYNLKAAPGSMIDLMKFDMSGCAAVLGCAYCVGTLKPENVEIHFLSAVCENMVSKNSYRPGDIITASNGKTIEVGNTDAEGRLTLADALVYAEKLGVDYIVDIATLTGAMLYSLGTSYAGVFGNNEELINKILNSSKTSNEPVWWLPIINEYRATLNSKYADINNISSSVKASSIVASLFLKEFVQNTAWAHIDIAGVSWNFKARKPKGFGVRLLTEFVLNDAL

[5] = target: T4, Aspartyl aminopeptidase (Plasmodium falciparum 3D7, UniProt Q8I2J3); assay: Counterscreen for inhibitors of M1 and M17 aminopeptidases: QFRET-based biochemical high throughput dose response assay for inhibitors of the Plasmodium falciparum M18 Aspartyl Aminopeptidase (PFM18AAP). [Related PubChem assays: 1619 (Screening assay (M17LAP inhibitors).), 1445 (Screening assay (M1AAP inhibitors).)]
T4 sequence (Q8I2J3 whole entry): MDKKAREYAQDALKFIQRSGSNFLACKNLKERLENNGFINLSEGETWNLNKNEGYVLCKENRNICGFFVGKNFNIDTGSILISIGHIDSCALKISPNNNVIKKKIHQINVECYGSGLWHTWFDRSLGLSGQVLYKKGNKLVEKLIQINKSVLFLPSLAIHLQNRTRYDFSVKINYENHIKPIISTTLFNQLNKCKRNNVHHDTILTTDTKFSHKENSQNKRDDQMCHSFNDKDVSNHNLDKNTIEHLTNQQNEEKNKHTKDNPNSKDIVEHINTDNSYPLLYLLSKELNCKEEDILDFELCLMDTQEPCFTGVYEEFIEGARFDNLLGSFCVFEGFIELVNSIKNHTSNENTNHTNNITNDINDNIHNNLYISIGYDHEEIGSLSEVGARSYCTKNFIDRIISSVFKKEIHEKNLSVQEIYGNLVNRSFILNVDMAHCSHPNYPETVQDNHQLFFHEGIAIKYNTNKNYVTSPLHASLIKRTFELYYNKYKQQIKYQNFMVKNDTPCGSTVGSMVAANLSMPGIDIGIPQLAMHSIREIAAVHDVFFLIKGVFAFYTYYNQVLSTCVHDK

[6] = target: Procathepsin L (Homo sapiens, UniProt P07711); assay: CTSL1 protease inhibition – biochemical, QFRET, 1536-well, counter-screen for M1/M17 aminopeptidase inhibitor project, dose response (AID 2214)
[7] = target: T5, Caspase-6 (Homo sapiens, UniProt P55212); assay: inhibition of CASP6 peptide cleavage – biochemical, VEID-R110 fluorescence, cherry-pick, dose response (AID 720632)
T5 sequence (P55212 whole entry): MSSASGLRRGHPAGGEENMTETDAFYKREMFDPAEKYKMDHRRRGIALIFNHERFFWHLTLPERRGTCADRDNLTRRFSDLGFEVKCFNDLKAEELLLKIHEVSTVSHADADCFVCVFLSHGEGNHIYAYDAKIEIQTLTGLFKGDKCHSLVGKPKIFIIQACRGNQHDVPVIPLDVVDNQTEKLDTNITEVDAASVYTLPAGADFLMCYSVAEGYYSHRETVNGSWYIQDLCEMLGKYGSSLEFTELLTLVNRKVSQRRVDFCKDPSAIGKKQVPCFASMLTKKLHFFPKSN

[8] = target: Estrogen receptor beta (Homo sapiens, UniProt Q92731);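 note: recombinant ER-beta bound to coactivator SRC1 peptide in presence of estradiol agonist; inhibitors block coactivator peptide binding and lower the FRET signal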
[9] = target: Disintegrin and metalloproteinase domain-containing protein 17 (Homo sapiens, UniProt P78536); assay: inhibition of ADAM17 substrate cleavage – biochemical, quenched FRET substrate, counter-screen for ADAM10 exosite inhibitor project, dose response (AID 743253)
[10] = Luminescence Cell-Based Dose Retest to Confirm Inhibitors of Cancer Stem Cells. [Related pubchem assays (depositor defined):AID2717, AID2721]; assay type: functional; conditions: Homo sapiens
[11] = target: T6, Ubiquitin-conjugating enzyme E2 N (Homo sapiens, UniProt P61088); assay type: functional;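 note: Dose-response confirmation in a TR-FRET assay detecting UBC13-driven polyubiquitin chain formation, inhibition measured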
T6 sequence (P61088 whole entry): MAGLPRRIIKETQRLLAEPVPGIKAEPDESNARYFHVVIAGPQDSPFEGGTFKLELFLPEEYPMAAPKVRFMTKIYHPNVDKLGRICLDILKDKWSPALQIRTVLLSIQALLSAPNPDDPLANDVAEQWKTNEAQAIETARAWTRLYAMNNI

[12] = target: T7, DNA repair and recombination protein RAD54-like (Homo sapiens, UniProt Q92698); assay: RAD54 Holliday junction migration blockers – biochemical, fluorescence, cherry-picked samples, dose series, confirmation (AID 651657); assay type: functional
T7 sequence (Q92698 whole entry): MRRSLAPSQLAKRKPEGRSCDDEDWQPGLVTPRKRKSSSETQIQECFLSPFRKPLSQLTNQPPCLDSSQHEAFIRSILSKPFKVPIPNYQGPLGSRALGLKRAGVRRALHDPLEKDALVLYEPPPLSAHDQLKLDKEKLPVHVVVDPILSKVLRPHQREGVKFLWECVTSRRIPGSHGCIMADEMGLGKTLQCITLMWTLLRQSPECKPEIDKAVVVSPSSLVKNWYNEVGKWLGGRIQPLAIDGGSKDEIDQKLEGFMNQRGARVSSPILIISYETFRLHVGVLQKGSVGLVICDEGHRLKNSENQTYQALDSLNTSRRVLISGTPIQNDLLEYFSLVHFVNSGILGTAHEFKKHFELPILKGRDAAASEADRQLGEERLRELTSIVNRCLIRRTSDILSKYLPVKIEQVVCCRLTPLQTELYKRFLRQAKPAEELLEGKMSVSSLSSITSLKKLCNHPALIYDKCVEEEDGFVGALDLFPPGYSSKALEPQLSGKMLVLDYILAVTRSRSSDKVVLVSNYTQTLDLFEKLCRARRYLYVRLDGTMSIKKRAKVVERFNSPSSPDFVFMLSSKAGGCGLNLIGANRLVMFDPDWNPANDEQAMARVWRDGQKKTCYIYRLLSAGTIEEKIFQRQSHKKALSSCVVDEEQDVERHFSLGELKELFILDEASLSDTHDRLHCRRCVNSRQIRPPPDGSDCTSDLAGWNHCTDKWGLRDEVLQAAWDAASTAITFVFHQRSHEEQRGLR

Chain of Procathepsin L (P07711 whole entry): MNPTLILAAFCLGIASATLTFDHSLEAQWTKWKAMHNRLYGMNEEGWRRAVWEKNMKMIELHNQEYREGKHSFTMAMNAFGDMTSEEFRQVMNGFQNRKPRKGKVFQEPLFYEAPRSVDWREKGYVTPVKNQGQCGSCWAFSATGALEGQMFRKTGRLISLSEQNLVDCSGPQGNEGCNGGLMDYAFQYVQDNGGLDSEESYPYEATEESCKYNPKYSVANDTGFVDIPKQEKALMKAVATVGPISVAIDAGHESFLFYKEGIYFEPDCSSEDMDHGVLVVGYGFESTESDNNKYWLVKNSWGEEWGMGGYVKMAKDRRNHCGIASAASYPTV
Chain of Disintegrin and metalloproteinase domain-containing protein 17 (P78536 whole entry, the tested form may be a part): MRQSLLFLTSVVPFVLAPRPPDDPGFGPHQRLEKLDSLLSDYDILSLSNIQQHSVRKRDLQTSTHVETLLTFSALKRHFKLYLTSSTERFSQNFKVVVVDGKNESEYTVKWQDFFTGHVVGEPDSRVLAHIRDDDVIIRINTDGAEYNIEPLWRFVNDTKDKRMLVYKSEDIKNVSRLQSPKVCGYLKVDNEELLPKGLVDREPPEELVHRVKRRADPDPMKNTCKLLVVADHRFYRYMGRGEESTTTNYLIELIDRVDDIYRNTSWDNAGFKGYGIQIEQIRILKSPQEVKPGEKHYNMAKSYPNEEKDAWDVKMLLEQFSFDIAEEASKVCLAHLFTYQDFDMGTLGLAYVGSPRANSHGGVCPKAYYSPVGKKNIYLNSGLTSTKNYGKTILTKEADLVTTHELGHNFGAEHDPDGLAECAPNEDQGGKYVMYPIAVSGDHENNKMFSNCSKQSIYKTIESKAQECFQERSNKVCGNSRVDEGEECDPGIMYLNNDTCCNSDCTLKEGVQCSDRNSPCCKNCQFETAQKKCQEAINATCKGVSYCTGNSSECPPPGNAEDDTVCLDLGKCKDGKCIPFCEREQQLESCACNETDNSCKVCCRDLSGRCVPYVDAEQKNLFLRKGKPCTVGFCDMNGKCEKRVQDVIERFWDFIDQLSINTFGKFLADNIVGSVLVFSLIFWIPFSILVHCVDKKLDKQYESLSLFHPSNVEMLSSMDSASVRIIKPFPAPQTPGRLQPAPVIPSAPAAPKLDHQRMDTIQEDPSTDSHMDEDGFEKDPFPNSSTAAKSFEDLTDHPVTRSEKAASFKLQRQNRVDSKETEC
Chain of Estrogen receptor beta (Q92731 whole entry, the tested form may be a part): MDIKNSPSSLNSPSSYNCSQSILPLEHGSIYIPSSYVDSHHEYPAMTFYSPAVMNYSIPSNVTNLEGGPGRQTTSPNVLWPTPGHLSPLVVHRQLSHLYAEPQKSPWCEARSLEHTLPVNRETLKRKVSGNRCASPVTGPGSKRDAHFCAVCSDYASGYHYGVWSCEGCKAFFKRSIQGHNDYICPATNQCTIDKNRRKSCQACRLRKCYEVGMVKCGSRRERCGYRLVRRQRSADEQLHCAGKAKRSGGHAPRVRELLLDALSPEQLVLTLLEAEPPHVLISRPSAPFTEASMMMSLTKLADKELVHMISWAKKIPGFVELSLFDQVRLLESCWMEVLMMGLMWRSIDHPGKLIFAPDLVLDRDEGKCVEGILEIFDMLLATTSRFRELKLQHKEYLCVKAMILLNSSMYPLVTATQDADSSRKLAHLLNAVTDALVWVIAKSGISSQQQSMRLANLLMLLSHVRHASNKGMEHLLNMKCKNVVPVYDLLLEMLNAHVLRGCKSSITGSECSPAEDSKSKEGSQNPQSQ

In the case of `Cc1ccc(C(=O)Nc2ccc(N3CCN(C(=O)c4cccs4)CC3)cc2)c(Cl)c1`, the CC50 [1] is reported as > 40 µM (active).
In the case of `O=C(NC1CCS(=O)(=O)C1)c1c(NC(=O)C2COc3ccccc3O2)sc2c1CCCC2` (stereo unspecified), the IC50 [2] is reported as > 50 µM (not active).
With `Cc1nc2c(C(=O)NCCC3=CCCCC3)cnn2c(O)c1Cl` the AC50 [3] was > 100 µM (inactive).
For `Cn1c(=O)c(C(=O)COC(=O)c2cc(C3CC3)nc3ccccc23)c(N)n(Cc2ccccc2)c1=O`, the CC50 [1] was > 40 µM (active).
For `O=C(NN1C(=O)/C(=C/c2cccc(O)c2)SC1=S)c1ccccc1O`, the AC50 [3] was 66.2 µM (active).
In the case of `COc1cc(NC(=O)CSc2nnc3c(C)cc4cc(C)cc(C)c4n23)c(C(=O)O)cc1OC`, the IC50 [4] is reported as 6 µM (active), the IC50 [5] is reported as > 73.5 µM (not active) and the IC50 [6] is reported as > 59.6 µM (not active).
With `COc1cc(SC)ccc1C(=O)OC(C)C(=O)NC1CCCC1` (stereo unspecified) the AC50 [7] was 24.6 µM (active).
With `CC1(C)Cc2c(C#N)c(SCc3ccccc3)nc(N3CCOCC3)c2CO1` the CC50 [1] was > 40 µM (active).
For `COC(=O)c1cnn2c(C(F)(F)F)cc(-c3ccco3)nc12`, the IC50 [8] was 25.9 µM (active) and the IC50 [2] was 42.4 µM (not active).
In the case of `O=C(O)C1CC=CCC1C(=O)Nc1cc(Cl)ccc1Cl` (stereo unspecified), the IC50 [4] is reported as 6.22 µM (active), the IC50 [5] is reported as > 73.5 µM (not active) and the IC50 [6] is reported as > 59.6 µM (not active).
In the case of `COc1ccc(/C=C2\SC(=O)N(CC(=O)Nc3cccnc3)C2=O)cc1OC`, the AC50 [3] is reported as 32 µM (inactive).
With `O=C1CC(N(CCc2ccccc2)C(=S)Nc2cc(Cl)ccc2Cl)C(=O)N1c1c(Cl)cccc1Cl` (stereo unspecified) the IC50 [9] was > 69.5 µM (inactive) and the AC50 [10] was 1.61 µM (active).
For `CC1CCCCN1CCNC(=O)c1cc2c(=O)n(C)c3ccccc3c2n1C` (stereo unspecified), the IC50 [11] was > 20 µM (inactive) and the AC50 [12] was 33 µM (active).
In the case of `CCOc1ccc(NC(=O)Nc2cccs2)cc1`, the IC50 [4] is reported as 3.22 µM (active), the IC50 [5] is reported as > 73.5 µM (not active) and the IC50 [6] is reported as > 59.6 µM (not active).
In the case of `CCCCN(C)CCN=C(S)Nc1ccc2nc(N3CCN(CC)CC3)cc(C)c2c1`, the AC50 [12] is reported as 16.2 µM (active).
With `O=C(O)[C@@H]1[C@@H](CO)[C@@H]2Cn3c(ccc(/C=C/c4ccccc4)c3=O)[C@@H]2N1Cc1ccc2c(c1)OCO2` the AC50 [7] was 41.3 µM (active).
In the case of `CC(N)C(=O)NC(C(=O)NC(C)C(=O)Nc1cccc2ccccc12)C(C)C` (stereo unspecified), the AC50 [7] is reported as 10.7 µM (active).
